Laboratory results published in patent US12202818B2, “Compounds and methods for CD73 modulation and indications therefor” (Opna Bio SA, priority 2020, dated 2025).

Columns and labels:
[1] = target: T1, human CD73 (Homo sapiens, UniProt P21589); experiment: Inhibitor activity against CD73 in cell based assay (CD73 expressing CHO-K1 cells); conditions: CHO-K1 cells expressing human CD73, 150 μM AMP, 4 hours of incubation; read-out: CHO-K1 CELL_VARIANT: CD73 IC50
T1 construct: expressed in transfected cells
T1 sequence (P21589 27-549): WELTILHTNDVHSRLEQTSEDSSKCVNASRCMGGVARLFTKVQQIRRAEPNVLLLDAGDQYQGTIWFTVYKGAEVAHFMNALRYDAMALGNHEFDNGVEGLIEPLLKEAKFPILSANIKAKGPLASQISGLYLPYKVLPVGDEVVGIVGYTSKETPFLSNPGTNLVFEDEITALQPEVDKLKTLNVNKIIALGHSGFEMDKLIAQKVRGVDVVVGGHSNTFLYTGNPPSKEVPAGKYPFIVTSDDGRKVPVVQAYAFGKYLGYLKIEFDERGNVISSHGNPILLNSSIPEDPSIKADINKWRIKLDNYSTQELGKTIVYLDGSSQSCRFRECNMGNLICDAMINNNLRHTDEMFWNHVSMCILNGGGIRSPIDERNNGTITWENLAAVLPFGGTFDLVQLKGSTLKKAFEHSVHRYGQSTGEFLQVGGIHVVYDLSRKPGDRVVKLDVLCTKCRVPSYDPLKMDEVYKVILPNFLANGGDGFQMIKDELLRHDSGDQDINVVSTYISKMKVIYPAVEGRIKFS
Procedure, shortened: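 AMP (150 μM) was added alongside 8 titrated compound doses (maximum 10 μM, 1:3 steps) to CHO-K1 cells stably expressing human CD73. After 4 h, supernatant AMP was measured indirectly with CellTiter-Glo 2.0 plus 1 μM ATP (30 min, RT). % inhibition versus high and low controls was fitted nonlinearly for IC50.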

[2] = target: T2, Human CD73 (amino acid residues 27-549) (Homo sapiens, UniProt P21589); experiment: CD73 enzymatic assay (luciferase-based indirect assay, CellTiter-Glo); assay type: biochemical; conditions: 0.4 nM CD73, 150 μM AMP, 1 hour at room temperature
T2 construct: Human CD73 (amino acid residues 27-549); His tag (N); made in house; host or cells: E. coli
T2 sequence (P21589 27-549): T1 sequence (P21589 27-549)
Procedure, shortened: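 Luciferase-coupled readout: AMP left after CD73 turnover suppresses CellTiter-Glo signal (1 μM ATP final, 30 min RT). Reaction beforehand: 150 μM AMP, 0.4 nM E. coli-made His-tagged CD73 residues 27-549, test compound, HEPES pH 7.4 with Tween-20, 1 h RT. % inhibition fitted nonlinearly for IC50.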

Row | IC50 [1] | IC50 [2] | SMILES
1 | 0.001 to 10 µM | 0.001 to 10 µM | COCc1noc(C)c1-c1cc(O[C@@H]2CCN(c3cn[nH]c(=O)c3Cl)C2)ncn1 [P-0125, (R)-4-chloro-5-(3-((6-(3-(methoxymethyl)-5-methylisoxazol-4-yl)pyrimidin-4-yl)oxy)pyrrolidin-1-yl)pyridazin-3(2H)-one]
2 | 0.001 to 10 µM | 0.001 to 10 µM | CCn1nc(C)c(-c2ccnc(O[C@@H]3CCN(c4cnn(CCO)c(=O)c4Cl)C3)c2)c1C [P-0062, (R)-4-chloro-5-(3-((4-(1-ethyl-3,5-dimethyl-1H-pyrazol-4-yl)pyridin-2-yl)oxy)pyrrolidin-1-yl)-2-(2-hydroxyethyl)pyridazin-3(2H)-one]
3 | 0.001 to 10 µM | 0.001 to 10 µM | CNS(=O)(=O)c1ccc(-c2ccnc(O[C@@H]3CCN(c4cn[nH]c(=O)c4Cl)C3)c2)cc1 [P-0244, (R)-4-(2-((1-(5-chloro-6-oxo-1,6-dihydropyridazin-4-yl)pyrrolidin-3-yl)oxy)pyridin-4-yl)-N-methylbenzenesulfonamide]
4 | 0.001 to 10 µM | 0.001 to 10 µM | Cc1cc(S(=O)(=O)NC2CC2)ccc1-c1ccnc(O[C@@H]2CCN(c3cn[nH]c(=O)c3Cl)C2)c1 [P-0235, (R)-4-(2-((1-(5-chloro-6-oxo-1,6-dihydropyridazin-4-yl)pyrrolidin-3-yl)oxy)pyridin-4-yl)-N-cyclopropyl-3-methylbenzenesulfonamide]
5 | 0.001 to 10 µM | 0.001 to 10 µM | Cc1nn(CC2(C)COC2)c(C)c1-c1ccnc(O[C@@H]2CCN(c3cn[nH]c(=O)c3Cl)C2)c1 [P-0095, (R)-4-chloro-5-(3-((4-(3,5-dimethyl-1-((3-methyloxetan-3-yl)methyl)-1H-pyrazol-4-yl)pyridin-2-yl)oxy)pyrrolidin-1-yl)pyridazin-3(2H)-one]
6 | 0.001 to 10 µM | 0.001 to 10 µM | Cc1nn(CC2COC2)c(C)c1-c1ccnc(O[C@@H]2CCN(c3cn[nH]c(=O)c3Cl)C2)c1 [P-0087, (R)-4-chloro-5-(3-((4-(3,5-dimethyl-1-(oxetan-3-ylmethyl)-1H-pyrazol-4-yl)pyridin-2-yl)oxy)pyrrolidin-1-yl)pyridazin-3(2H)-one]
7 | 0.001 to 10 µM | 0.001 to 10 µM | O=c1c(Cl)c(N2CC[C@@H](Oc3cc(C4CCNCC4)ccn3)C2)cnn1CCO [P-0023, (R)-4-chloro-2-(2-hydroxyethyl)-5-(3-((4-(piperidin-4-yl)pyridin-2-yl)oxy)pyrrolidin-1-yl)pyridazin-3(2H)-one]
8 | 0.001 to 10 µM | 0.001 to 10 µM | Cc1nc(C)c(-c2cc(F)nc(O[C@@H]3CCN(c4cn[nH]c(=O)c4Cl)C3)c2)s1 [P-0174, (R)-4-chloro-5-(3-((4-(2,4-dimethylthiazol-5-yl)-6-fluoropyridin-2-yl)oxy)pyrrolidin-1-yl)pyridazin-3(2H)-one]
9 | 0.001 to 10 µM | 0.001 to 10 µM | O=C(O)C1CC=C(c2ccnc(O[C@@H]3CCN(c4cn[nH]c(=O)c4Cl)C3)c2)CC1 (stereo partly drawn) [P-0050, 4-(2-(((R)-1-(5-chloro-6-oxo-1,6-dihydropyridazin-4-yl)pyrrolidin-3-yl)oxy)pyridin-4-yl)cyclohex-3-ene-1-carboxylic acid]
10 | 0.001 to 10 µM | 0.001 to 10 µM | NC1CCC(c2ccnc(O[C@@H]3CCN(c4cn[nH]c(=O)c4Cl)C3)c2)CC1 (stereo partly drawn) [P-0059, (R)-5-(3-((4-(4-aminocyclohexyl)pyridin-2-yl)oxy)pyrrolidin-1-yl)-4-chloropyridazin-3(2H)-one]
11 | 0.001 to 10 µM | 0.001 to 10 µM | N#CC1CCC(c2ccnc(O[C@@H]3CCN(c4cnn(CCO)c(=O)c4Cl)C3)c2)CC1 (stereo partly drawn) [P-0046, (R)-4-(2-((1-(5-chloro-1-(2-hydroxyethyl)-6-oxo-1,6-dihydropyridazin-4-yl)pyrrolidin-3-yl)oxy)pyridin-4-yl)cyclohexane-1-carbonitrile]
12 | 0.001 to 10 µM | 0.001 to 10 µM | Cn1cncc1-c1cc(F)nc(O[C@@H]2CCN(c3cn[nH]c(=O)c3Cl)C2)c1 [P-0173, (R)-4-chloro-5-(3-((6-fluoro-4-(1-methyl-1H-imidazol-5-yl)pyridin-2-yl)oxy)pyrrolidin-1-yl)pyridazin-3(2H)-one]
13 | 0.001 to 10 µM | 0.001 to 10 µM | N#CC1CCN(c2ccnc(O[C@@H]3CCN(c4cn[nH]c(=O)c4Cl)C3)c2)CC1 [P-0074, (R)-1-(2-((1-(5-chloro-6-oxo-1,6-dihydropyridazin-4-yl)pyrrolidin-3-yl)oxy)pyridin-4-yl)piperidine-4-carbonitrile]
14 | 0.001 to 10 µM | 0.001 to 10 µM | Cc1nn(CC(C)(C)O)c(C)c1-c1cc(O[C@@H]2CCN(c3cn[nH]c(=O)c3Cl)C2)ncn1 [P-0037, (R)-4-chloro-5-(3-((6-(1-(2-hydroxy-2-methylpropyl)-3,5-dimethyl-1H-pyrazol-4-yl)pyrimidin-4-yl)oxy)pyrrolidin-1-yl)pyridazin-3(2H)-one]
15 | 0.001 to 10 µM | 0.001 to 10 µM | Cc1noc(C)c1-c1cc(O[C@@H]2CCN(c3cnn(CCO)c(=O)c3Cl)C2)ncc1F [P-0146, (R)-4-chloro-5-(3-((4-(3,5-dimethylisoxazol-4-yl)-5-fluoropyridin-2-yl)oxy)pyrrolidin-1-yl)-2-(2-hydroxyethyl)pyridazin-3(2H)-one]
16 | 0.001 to 10 µM | 0.001 to 10 µM | Cc1noc(C)c1-c1cc(O[C@@H]2CCN(c3cnn(CCO)c(=O)c3Cl)C2)ccn1 [P-0136, (R)-4-chloro-5-(3-((2-(3,5-dimethylisoxazol-4-yl)pyridin-4-yl)oxy)pyrrolidin-1-yl)-2-(2-hydroxyethyl)pyridazin-3(2H)-one]
17 | 0.001 to 10 µM | 0.001 to 10 µM | Cc1nn(CC2(F)COC2)c(C)c1-c1ccnc(O[C@@H]2CCN(c3cn[nH]c(=O)c3Cl)C2)c1 [P-0130, (R)-4-chloro-5-(3-((4-(1-((3-fluorooxetan-3-yl)methyl)-3,5-dimethyl-1H-pyrazol-4-yl)pyridin-2-yl)oxy)pyrrolidin-1-yl)pyridazin-3(2H)-one]
18 | 10 to 100 µM | 0.001 to 10 µM | CC(=O)N1CCN(c2ccnc(O[C@@H]3CCN(c4cn[nH]c(=O)c4Cl)C3)c2)[C@H](C)C1 [P-0104, 5-((R)-3-((4-((R)-4-acetyl-2-methylpiperazin-1-yl)pyridin-2-yl)oxy)pyrrolidin-1-yl)-4-chloropyridazin-3(2H)-one]
19 | 0.001 to 10 µM | 0.001 to 10 µM | Cc1c(-c2ccnc(O[C@@H]3CCN(c4cn[nH]c(=O)c4Cl)C3)c2)cnn1C [P-0209, (R)-4-chloro-5-(3-((4-(1,5-dimethyl-1H-pyrazol-4-yl)pyridin-2-yl)oxy)pyrrolidin-1-yl)pyridazin-3(2H)-one]
20 | 0.001 to 10 µM | 0.001 to 10 µM | O=c1[nH]ncc(N2CC[C@@H](Oc3cc(-c4ccc(OC(F)(F)F)cc4)ccn3)C2)c1Cl [P-0237, (R)-4-chloro-5-(3-((4-(4-(trifluoromethoxy)phenyl)pyridin-2-yl)oxy)pyrrolidin-1-yl)pyridazin-3(2H)-one]
21 | 0.001 to 10 µM | 0.001 to 10 µM | Cc1nn(CC2(C)COC2)c(C)c1-c1ccnc(O[C@H]2CN(c3cn[nH]c(=O)c3Cl)C[C@@H]2F)c1 [P-0096, 4-chloro-5-((3S,4S)-3-((4-(3,5-dimethyl-1-((3-methyloxetan-3-yl)methyl)-1H-pyrazol-4-yl)pyridin-2-yl)oxy)-4-fluoropyrrolidin-1-yl)pyridazin-3(2H)-one]
22 | 0.001 to 10 µM | 0.001 to 10 µM | Cc1nn(C2(CC#N)CCC2)c(C)c1-c1ccnc(O[C@@H]2CCN(c3cn[nH]c(=O)c3Cl)C2)c1 [P-0036, (R)-2-(1-(4-(2-((1-(5-chloro-6-oxo-1,6-dihydropyridazin-4-yl)pyrrolidin-3-yl)oxy)pyridin-4-yl)-3,5-dimethyl-1H-pyrazol-1-yl)cyclobutyl)acetonitrile]
23 | 0.001 to 10 µM | 0.001 to 10 µM | CC(=O)Nc1ccc(-c2ccnc(O[C@@H]3CCN(c4cn[nH]c(=O)c4Cl)C3)c2)c(F)c1 [P-0213, (R)-N-(4-(2-((1-(5-chloro-6-oxo-1,6-dihydropyridazin-4-yl)pyrrolidin-3-yl)oxy)pyridin-4-yl)-3-fluorophenyl)acetamide]
24 | 10 to 100 µM | 0.001 to 10 µM | CC(C)c1cc(Nc2cccnc2O[C@@H]2CCN(c3cnn(CCO)c(=O)c3Cl)C2)n(C)n1 [P-0101, (R)-4-chloro-2-(2-hydroxyethyl)-5-(3-((3-((3-isopropyl-1-methyl-1H-pyrazol-5-yl)amino)pyridin-2-yl)oxy)pyrrolidin-1-yl)pyridazin-3(2H)-one]
25 | 0.001 to 10 µM | 0.001 to 10 µM | Cc1nn(C)c(C)c1-c1ccnc(O[C@@H]2CCN(c3cnn(CCCO)c(=O)c3Cl)C2)c1 [P-0127, (R)-4-chloro-2-(3-hydroxypropyl)-5-(3-((4-(1,3,5-trimethyl-1H-pyrazol-4-yl)pyridin-2-yl)oxy)pyrrolidin-1-yl)pyridazin-3(2H)-one]
